Measured values reported in patent US12226450B2, “Peptides and methods for treating disease” (OP-T LLC, priority 2019, dated 2025).
Where no end group is shown, it is not given here.

Legend:
CD4+ and CD8+ cells = test: CD4/CD8 ratio in blood of peptide-treated NOD mice by flow cytometry; assay type: in vivo, mouse; settings: 25 ug tail vein weekly
Procedure: (§1) Peptides were designed based on the amino acid sequence of mouse CD154 protein (SEQ ID NO:1) in the SwissPro database. […] Weekly after the initial injection, another 25 ug of peptide (or 100 ul of PBS in the case of the Control mice) was injected into the tail vein. At 10 weeks of age, mice were monitored for diabetes, as indicated by a blood glucose level greater than 250 mg/dL for three consecutive days. During this time, blood was also taken from the tail vein, or by sub-mandibular venal puncture, and the level of CD4+ and CD8+ cells determined by flow cytometry using antibodies for CD4 protein and CD8 protein.

[1] = test system: CD3+CD4+CD40+(Th40) splenic cells; test: Inflammatory cytokines in cultured Th40 splenic cells from ApoE−/− mice; assay type: cell-based, mouse; settings: overnight culture, varying concentrations, compared to the untreated cells
Procedure: FIG. 24 provides a graph showing that different concentrations of peptide of SEQ ID NO:46 affects or influences levels of IL-2, IFNγ, and IL-17A. In this study, CD3+CD4+CD40+(Th40) splenic cells were purified from ApoE^−/− with cardiovascular disease. The cells were cultured overnight in the absence/presence of varying concentrations of KGYY6 peptide.

NOD mice [2] = test: Development of diabetes in NOD mice treated with CD154 peptide fragments; assay type: in vivo, mouse; settings: 25 ug (1 mg/kg) tail vein weekly from 6 weeks of age; diabetes = blood glucose greater than 250 mg/dL for three consecutive days
Procedure: as §1

diabetic dogs = test: Safety in treated diabetic dogs: blood counts, chemistry panels, adverse effects; assay type: in vivo, dog
Procedure: Five diabetic dogs including 4 new onset and 1 long-term, (diagnosis greater than 3 years) were recruited into a test case study. The dogs were enrolled at Colorado State University Veterinary Hospital (CSU-VH), Fort Collins, CO for the study. Each dog was assessed by a Board-Certified Veterinarian. Blood samples were collected from each dog and analyzed by chemistry panels to determine general health, as well as assessed by complete physical examination. The dogs were each confirmed diabetic, blood glucose ranging from 300-600 mg/dl but were generally in good health otherwise. One dog was diagnosed with hypertension, and two dogs had eye problems, partial blindness and the long-term dog was completely blind from diabetes.
Breeds were varied and sizes ranged from 8 to 27 kilos. Four of the dogs had been diagnosed for 3 months or less, 1 dog was diagnosed for 3.5 years. All dogs were receiving daily insulin treatments. The route of administration was IV infusion of SEQ ID NO. 13 over 30 minutes at 2 mg/kg on Days 0, 4, 8 and then weekly thereafter for a total of 8 weeks. The dogs were treated with the dog-sequence (SEQ ID NO: 13—VLRWAPKGYYTISSN); acetate salt form; brought up in sterile PBS for injection; injection was done as a slow infusion over 30 minutes. […] The dog diagnosed for 3.5 years experienced an improvement of time-in-range (percentage of a 24-hour period that blood glucose ranged between 80 and 160) from 10% to 80% for 5 consecutive days in the 5th week and achieved this for the last 3 test weeks. Typical responses in all five dogs was that 3-5 days post treatment improvements in blood glucose occurred. For example, blood glucose would move from 400 to 120, remain stable for 2 days but return to elevated levels. In all the treated dogs, glucose spikes were at lower levels, 300 mg/dl as a high, compared to >500 mg/dl prior to treatment. In fact, prior to treatment, none of the dogs recorded blood glucose levels less than 350. During treatment dogs were at 200 mg/dl or lower the majority of the time and in many cases were at 150 mg/dl or less.
Prior to treatment blood samples were analyzed for blood glucose levels and Th40 cell percentages in peripheral blood. These pre-treatment Th40 cell levels and blood glucose levels can be seen in FIGS. 15, 16, and 17. In FIG. 15, controls are blood samples from test beagles used by CSU-VH and were all confirmed non-diabetic (i.e. not diabetic). […] On day 0, prior to the first treatment, blood was collected from leg vein and analyzed for Th40 cell percentages. […] Samples were analyzed for Th40 cells by flow cytometry. Furthermore, isolated blood was processed to obtain lymphocytes. […] The percentage of CD4+CD40+ as a subset of total CD4+ cells was determined and graphed. […]

NOD mice [3] = test: Hyperglycemia in diabetic NOD mice treated with KGYY-15; assay type: in vivo, mouse; settings: control treatments, blood glucose between 250-400 mg/dl
Procedure: In this study, NOD mice, blood glucose between 250-400 mg/dl were treated with KGYY-15. Control mice were treated with MR1 an anti-CD154 antibody or scrambled 15-mer peptide (SEQ ID NO: 17). KGYY-15 (SEQ ID NO: 11) reduced blood glucose in 57% of mice treated, the controls MR1 and scrambled 15-mer peptide had no effect.

[4] = diabetic dogs, IV infusion 2 mg/kg

CSCC[C@H](NC(=O)[C@@H](NC(=O)[C@H](Cc1ccc(O)cc1)NC(=O)[C@H](Cc1ccc(O)cc1)NC(=O)CNC(=O)[C@H](CCCCN)NC(=O)[C@H](CCCCN)NC(=O)[C@H](C)NC(=O)[C@H](Cc1c[nH]c2ccccc12)NC(=O)[C@H](CCC(N)=O)NC(=O)[C@H](CC(C)C)NC(=O)[C@@H](N)C(C)C)[C@@H](C)O)C(=O)N[C@@H](CCCCN)C(=O)N[C@@H](CO)C(=O)N[C@@H](CC(N)=O)C(=O)O [15-mer peptide, VLQWAKKGYYTMKSN]
compromise of the immune system, as determined by the CD4/CD8 ratio (CD4+ and CD8+ cells): did not result in compromise of the immune system

AKKGYY (not fully specified (C-terminus)) [KGYY6]
IFNγ [1]: varying degrees of reduction | IL-2 [1]: varying degrees of reduction | IL-17A [1]: varying degrees of reduction

VLQWAKKGYYTMK (not fully specified (C-terminus)) [13-mer peptides]
development of diabetes (NOD mice [2]): significant effects on the development of diabetes

VLRWAPKGYYTISSN [SEQ ID NO: 13, VLRWAPKGYYTISSN]
adverse effects (diabetic dogs; [4]): None of the dogs experienced any adverse effects | chemistry panel numbers (diabetic dogs; [4]): normal | impact on WBC and RBC (diabetic dogs; [4]): no negative impacts | blood chemistry panels versus samples prior to treatment (diabetic dogs; each improved from blood samples prior to treatment): normal levels on most parameters

YKNVKQMAYWLTGKS [scrambled 15-mer peptide]
effect on blood glucose (NOD mice [3]): no effect
